Source: patent US4853401A, “Spiro-hydantoins as aldose reductase inhibitors” (priority 1987, dated 1989)

Key:
[1] = tested on: accumulation of sorbitol in the sciatic nerves; assay: Inhibition of accumulation of sorbitol in sciatic nerves of diabetic rats; format: in vivo, Sprague Dawley rats; settings: oral 25 mg/kg at 0, 7 and 24 h, sacrificed 27 h
Procedure: (§1) 2.1 Inhibition of accumulation of sorbitol in crystalline lenses and nerves of diabetic rats:
(§2) The effects of the products according to the invention on the proportion of plasma glucose and the accumulation of sorbitol in the crystalline lenses and sciatic nerves of rats made diabetic by streptozotocin were examined by the method of M. J. Peterson, et al (Metabolism, 28, 456-461 (1979)).
(§3) Fasted Sprague Dawley rats were made diabetic by intraperitoneal injection of streptozotocin (75 mg/kg). The product under test was orally administered at a dose of 25 mg/kg after 0, 7 and 24 hours. The rats were sacrificed 27 hours after induction of diabetes. The crystalline lenses and sciatic nerves were taken and preserved at -20° C. until analysed. The crystalline lenses and sciatic nerves were homogenized in water and the proteins were precipitated from ethanol. The precipitate was eliminated by centrifuging and the supernatant liquid was lyophylised. The sorbitol in the sample was determined by the method of B. Bjorkqvist (J. of Chromatograph, 218, 65-71 (1981)), adapted by A. Lenaers et al. (Arch. Intern. Physiol. Bioch., 91, B, 62-63 (1983)).
(§4) The sample was dissolved in pyridine containing galactitol as an internal standard. Derivatives were formed therefrom by phenylisocyanate during incubation for 1 hour at 60° C. The reaction was then stopped by adding methanol and the derivatives were separated and determined by HPLC.
(§5) The results are expressed as percentage inhibition of the accumulation of sorbitol, compared with the controls.

[2] = Acute oral toxicity (LD50); format: in vivo; settings: mouse, in vivo, mice, read-out: Lethal dose LD50
Procedure: The LD 50 was calculated by the method of Litchfield and Wilcoxon (J. Pharmacol. Exp. Ther., 96, 99, 1949) and is expressed in mg/kg. The products were orally administered to mice.
Behaviour was studied, 2, 4, 6 and 24 hours after treatment. Observation was continued if symptoms persisted at that time. Deaths were recorded during the 14 days after treatment. The results are given in Table II, in which the numbers of the compounds are the same as the numbers given in column 1 of Table I.

[3] = tested on: accumulation of sorbitol in the crystalline lenses; assay: Inhibition of accumulation of sorbitol in crystalline lenses of diabetic rats; format: in vivo, Sprague Dawley rats; settings: for Inhibition of accumulation of sorbitol in vivo, crystalline lenses: oral 25 mg/kg at 0, 7 and 24 h, sacrificed 27 h; for inhibition of accumulation of sorbitol in crystalline lenses and sciatic nerves (in words): oral 25 mg/kg
Procedure: as §1, §2, §3, §4, §5

aldose reductase = target: T1, aldose reductase (Rattus norvegicus, UniProt P07943); assay: Inhibition of enzymatic activity of aldose reductase in vitro; format: biochemical; settings: 10^-4 M, rat crystalline lens enzyme, pH 6.2, D,L-glyceraldehyde substrate; read-out: Inhibition of enzymatic activity of AR in vitro
T1 construct: The supernatant liquid formed the enzyme solution used for the test; from tissue; host or cells: rat crystalline lens, water homogenate, supernatant
From the text: 1.1 Inhibiting effect on enzymatic activity of aldose reductase:
The method described by S. Hayman and J. H. Kinoshita (J. Biol. Chem., 240, 877 (1965)) was used for in vitro testing of the aforementioned effect of the products according to the invention.
Rat's crystalline lens was homogenized in water and centrifuged to eliminate insoluble substances. The supernatant liquid formed the enzyme solution used for the test.
The effect of products according to the invention in inhibiting enzymatic activity of aldose reductase was determined by spectrophotometrically following for 5 minutes the disappearance of NADPH in an aqueous solution containing 0.067M phosphate buffer (final pH: 6.2), 0.40M lithium sulphate, 5.10^-5 M NADPH, 10^-4 M of the product under test and 100 μl of the enzyme solution, to which 10^-2 M of D,L-glyceraldehyde had been added as substrate. (NADPH=reduced form of nicotinamide adenine dinucleotide phosphate).
The inhibiting effect observed in the presence of 10^-4 M of product under test relative to the reaction in the absence of a compound according to the invention, is expressed as a percentage.

[4] = tested on: accumulation of galactitol in fibroblasts obtained from human skin; assay: Inhibition of accumulation of galactitol in fibroblasts; format: cell-based; settings: Fibroblast, 48 h, 37° C., galactose 3 mg/ml
Procedure: 1.2 Inhibiting effect on accumulation of galactitol:
A test for evaluating this activity was made in vitro on fibroblasts obtained from human skin.
An experimental model culture was obtained by incubating the cells in the presence of a medium containing a high concentration of galactose (3 mg/ml) and the product under test, and measuring the accumulation of galactitol in the cells after a 48-hour incubation period at 37° C. The cells were then isolated, washed in physiological salt solution and treated with a water-ethanol solution. The medium was centrifuged and the supernatant liquid was lyophylized.
The galactitol in the resulting sample was determined by HPLC (=high pressure liquid chromatography) after derivatives had been obtained with phenyl isocyanate.
The proportion of proteins in the precipitate obtained during the previously-mentioned centrifuging was measured by the method of M. M. Bradford (Anal. Biochem., 72, 248-254 (1976)) and indicated the number of cells present in the sample.
The inhibiting effect of the tested product was expressed as a percentage inhibition of intracellular accumulation of galactitol compared with the controls.

inhibition at 100 µM (aldose reductase) [%] | SMILES | Inhibition of accumulation of sorbitol in vivo, in sciatic nerves [1] [%] | LD50 at 336 h [2] [mg/kg] | Inhibition of accumulation of sorbitol in vivo, crystalline lenses [3] [%] | inhibition of accumulation of sorbitol in crystalline lenses and sciatic nerves (in words) [3] | inhibition at 100 µM ([4]; 10^-4 M) [%] | inhibition at 10 µM ([4]; 10^-5 M) [%] | inhibition at 1 µM ([4]; 10^-6 M) [%]
 | O=C(OCN1C(=O)N(COC(=O)Oc2ccccc2)C2(C1=O)c1ccccc1-c1ccccc12)Oc1ccccc1 [Compound 16] | 65 | > 3000 | 53 |  |  |  | 
 | O=C(OCN1C(=O)N(COC(=O)C2CCCCC2)C2(C1=O)c1ccccc1-c1ccccc12)C1CCCCC1 [Compound 12] | 48 | > 1000 | 12 |  |  |  | 
 | O=C(OCc1ccccc1)OCN1C(=O)N(COC(=O)OCc2ccccc2)C2(C1=O)c1ccccc1-c1ccccc12 [Compound 13] | 50 |  | 33 |  |  |  | 
 | CC(C)(C)C(=O)OCN1C(=O)N(COC(=O)C(C)(C)C)C2(C1=O)c1ccccc1-c1ccccc12 [Compound 4] | 50 |  | 51 |  |  |  | 
 | O=C(COc1ccccc1)OCN1C(=O)N(COC(=O)COc2ccccc2)C2(C1=O)c1ccccc1-c1ccccc12 [Compound 14] | 61 | > 1000 | 51 |  |  |  | 
 | O=C(Nc1ccccc1)OCN1C(=O)N(COC(=O)Nc2ccccc2)C2(C1=O)c1ccccc1-c1ccccc12 [Compound 18, bis-(1',3'-N-phenylcarbamoyloxymethyl)-spiro-/fluorene-9,4'-imidazolidine/-2',5'-dione] | 17 | > 3000 | 8 |  |  |  | 
 | O=C(CCCC1CCCCC1)OCN1C(=O)N(COC(=O)CCCC2CCCCC2)C2(C1=O)c1ccccc1-c1ccccc12 [Compound 8] | 85 | > 3000 | 69 | particularly active |  |  | 
 | O=C(OCN1C(=O)N(COC(=O)c2ccccc2)C2(C1=O)c1ccccc1-c1ccccc12)c1ccccc1 [Compound 3] | 55 | > 3000 | 37 |  |  |  | 
84 | COCN1C(=O)NC2(C1=O)c1ccccc1-c1ccccc12 [Compound 17, 1'-(methoxymethyl)-spiro-/fluorene-9,4'-imidazolidine/-2',5'-dione] | 92 |  | 86 | particularly active |  |  | 
 | CCOC(=O)OCN1C(=O)N(COC(=O)OCC)C2(C1=O)c1ccccc1-c1ccccc12 [Compound 10, bis-(1',3'-ethoxycarbonyloxymethyl)-spiro-/fluorene-9,4'-imidazolidine/-2',5'-dione] | 84 | > 3000 | 80 | particularly active |  |  | 
 | O=C(OCN1C(=O)N(COC(=O)C2CCCC2)C2(C1=O)c1ccccc1-c1ccccc12)C1CCCC1 [Compound 19] | 89 | > 3000 | 77 | particularly active |  |  | 
 | CC(C)(C)CC(=O)OCN1C(=O)N(COC(=O)CC(C)(C)C)C2(C1=O)c1ccccc1-c1ccccc12 [Compound 9] | 70 | > 1000 | 49 |  |  |  | 
 | CC(OC(=O)C(C)(C)C)N1C(=O)NC2(C1=O)c1ccccc1-c1ccccc12 (stereo not shown) [Compound 7, 1'-/1-(2,2-dimethylpropanoyloxy)-ethyl/-spiro-/fluorene-9,4'-imidazolidine/-2',5'-dione] | 72 |  | 45 |  |  |  | 
0 | CNC(=O)OCN1C(=O)N(COC(=O)NC)C2(C1=O)c1ccccc1-c1ccccc12 [Compound 22] | 17 |  | 21 |  |  |  | 
0 | CCCCC(=O)OCN1C(=O)N(COC(=O)CCCC)C2(C1=O)c1ccccc1-c1ccccc12 [Compound 15] | 74 |  | 54 |  |  |  | 
 | CCC(=O)OCN1C(=O)N(COC(=O)CC)C2(C1=O)c1ccccc1-c1ccccc12 [Compound 5, bis-(1',3'-propanoyloxymethyl)-spiro-[fluorene-9,4'-imidazolidine]-2',5'-dione] | 81 |  | 74 | particularly active | 91 | 56 | 24
 | CCC(C(=O)OCN1C(=O)N(COC(=O)C(CC)c2ccccc2)C2(C1=O)c1ccccc1-c1ccccc12)c1ccccc1 (stereo not shown) [Compound 20] | 77 | > 3000 | 60 |  |  |  | 
0 | O=C(CCCc1ccccc1)OCN1C(=O)N(COC(=O)CCCc2ccccc2)C2(C1=O)c1ccccc1-c1ccccc12 [Compound 11] | 24 |  | 4 |  |  |  | 

SMILES | inhibition at 100 µM (aldose reductase) [%] | Inhibition of accumulation of sorbitol in vivo, in sciatic nerves [1] [%] | LD50 at 336 h [2] [mg/kg] | Inhibition of accumulation of sorbitol in vivo, crystalline lenses [3] [%] | inhibition of accumulation of sorbitol in crystalline lenses and sciatic nerves (in words) [3] | inhibition at 100 µM ([4]; 10^-4 M) [%] | inhibition at 10 µM ([4]; 10^-5 M) [%] | inhibition at 1 µM ([4]; 10^-6 M) [%]
CC(=O)OCN1C(=O)NC2(C1=O)c1ccccc1-c1ccccc12 [Compound 21, 1'-(acetoxymethyl)-spiro-/fluorene-9,4'-imidazolidine/-2',5'-dione] | 8 | 94 | > 1000 | 85 | particularly active |  |  | 
CCCCCCCC(=O)OCN1C(=O)N(COC(=O)CCCCCCC)C2(C1=O)c1ccccc1-c1ccccc12 [Compound 6, bis-(1',3'-n.octanoyloxymethyl)-spiro-/fluorene-9,4'-imidazolidine/-2',5'-dione] | 0 | 79 | > 3000 | 76 |  |  |  | 
